Assay results taken from patent publication US7947830B2, “Substituted propenyl piperazine derivatives as novel inhibitors of histone deacetylase” (Janssen Pharmaceutica N.V., priority 2004, dated 2011).
Values after ≈ are worked out from the molar mass of the structure shown.

Tests used:
[1] = Solubility at different pH's, chemiluminescent nitrogen detector (C.3.b); format: physicochemical; conditions: for solubility: pH 2.3, aqueous buffer, read-out: Solubility C.3.b. pH = 2.3 mg/ml
Text: In a second method the solubility of a compound at different pH's can be measured with the use of a chemiluminescent nitrogen detector (see example C.3.b).
The solubility of a compound, at different pH's, can also be measured with the use of a cherniluminescent nitrogen detector (see Table F-3).

[2] = tested on: A2780 ovarian carcinoma cells; assay: Antiproliferative activity on A2780 cells (MTT); format: cell-based, human; conditions: four days of incubation; for IC50: Homo sapiens, A2780, 96 h, read-out: Cellular activity pIC50 C.2. (converted)
Protocol: Cellular activity of the compounds of formula (I) was determined on A2780 tumour cells using a […] assay for cell toxicity or survival (Mosmann Tim, Journal of Immunological Methods 65: 55-63, 1983)(see example C.2).
All compounds tested were dissolved in DMSO and further dilutions were made in culture medium. Final DMSO concentrations never exceeded 0.1% (v/v) in cell proliferation assays. Controls contained A2780 cells and DMSO without compound and blanks contained DMSO but no cells. MTT was dissolved at 5 mg/ml in PBS. A glycine buffer comprised of 0.1 M glycine and 0.1 M NaCl buffered to pH 10.5 with NaOH (1 N) was prepared (all reagents were from Merck).
The human A2780 ovarian carcinoma cells (a kind gift from Dr. T. C. Hamilton [Fox Chase Cancer Centre, Pennsylvania, USA]) were cultured in RPMI 1640 medium supplemented with 2 mM L-glutamine, 50 μg/ml gentamicin and 10% fetal calf serum.
Cells were routinely kept as monolayer cultures at 37° C. in a humidified 5% CO2 atmosphere. Cells were passaged once a week using a trypsin/EDTA solution at a split ratio of 1:40. All media and supplements were obtained from Life Technologies. Cells were free of mycoplasma contamination as determined using the Gen-Probe Mycoplasma Tissue Culture kit (supplier: BioMérieux).
Cells were seeded in NUNC™ 96-well culture plates (Supplier: Life Technologies) and allowed to adhere to the plastic overnight. Densities used for plating were 1500 cells per well in a total volume of 200 μl medium. After cell adhesion to the plates, medium was changed and drugs and/or solvents were added to a final volume of 200 μl. Following four days of incubation, medium was replaced by 200 μl fresh medium and cell density and viability was assessed using an MTT-based assay. To each well, 25 μl […] solution was added and the cells were further incubated for 2 hours at 37° C. The medium was then carefully aspirated and the blue MTT-formazan product was solubilized by addition of 25 μl glycine buffer followed by 100 μl of DMSO. […] Within an experiment, the results for each experimental condition are the mean of 3 replicate wells. For initial screening purposes, compounds were tested at a single fixed concentration of 10^−6 M. For active compounds, the experiments were repeated to establish full concentration-response curves. For each experiment, controls (containing no drug) and a blank incubation (containing no cells or drugs) were run in parallel. The blank value was subtracted from all control and sample values. For each sample, the mean value for cell growth (in absorbance units) was expressed as a percentage of the mean value for cell growth of the control. […] Herein the effects of test compounds are expressed as pIC50 (the negative log value of the IC50-value)(see Table F-3).

[3] = molecular target: histone deacetylase (HeLa nuclear extracts); assay: In vitro assay for inhibition of histone deacetylase (HDAC Fluorescent Activity Assay, Fluor de Lys); format: biochemical; conditions: Fluor de Lys substrate
Text: The in vitro assay for inhibition of histone deacetylase (see example C.1) measures the inhibition of HDAC enzymatic activity obtained with the compounds of formula (I).
The HDAC Fluorescent Activity Assay/Drug Discovery Kit of Biomol (cat.No: AK-500-0001) was used. The HDAC Fluorescent Activity Assay is based on the Fluor de Lys (Fluorogenic […] deAcetylase Lysyl) substrate and developer combination. The Fluor de Lys substrate, comprises an acetylated lysine side chain. Deacetylation of the substrate sensitizes the substrate so that, in the second step, treatment with the Fluor de Lys developer produces a fluorophore.
After 30 min, 1 volume of the developer was added. […] For each experiment, controls (containing HeLa nuclear extract and buffer), a blank incubation (containing buffer but no HeLa nuclear extract) and samples (containing compound dissolved in DMSO and further diluted in buffer and HeLa nuclear extract) were run in parallel. […] All sample were tested 4 times. In each test the blank value was substracted from both the control and the sample values. The control sample represented 100% of substrate deactylation. For each sample the fluorescence was expressed as a percentage of the mean value of the controls. […] Herein the effects of test compounds are expressed as pIC50 (the negative log value of the IC50-value) (see Table F-3).

[4] = Kinetic solubility in aqueous media (nephelometer, C.3.a); format: physicochemical; conditions: aqueous buffer, kinetic from dmso stock; score; phosphate citrate buffer pH 7.4, turbidity
Protocol: The solubility of a compound measures the ability of a compound to stay in solution. In a first method the ability of a compound to stay in aqueous solution upon dilution (see example C.3.a) is measured. DMSO-stock solutions are diluted with a single aqueous buffer solvent in 3 consecutive steps. For every dilution turbidity is measured with a nephelometer.
In the first dilution step, 10 μl of a concentrated stock-solution of the active compound, solubilized in DMSO (5 mM), was added to 100 μl phosphate citrate buffer pH 7.4 and mixed. In the second dilution step, an aliquot (20 μl) of the first dilution step was further dispensed in 100 μl phosphate citrate buffer pH 7.4 and mixed. Finally, in the third dilution step, a sample (20 μl) of the second dilution step was further diluted in 100 μl phosphate citrate buffer pH 7.4 and mixed. All dilutions were performed in 96-well plates. Immediately after the last dilution step the turbidity of the three consecutive dilution steps were measured with a nephelometer. Dilution was done in triplicate for each compound to exclude occasional errors. Based on the turbidity measurements a ranking is performed into 3 classes. Compounds with high solubility obtained a score of 3 and for this compounds the first dilution is clear. Compounds with medium solubility obtained a score of 2. For these compounds the first dilution is unclear and the second dilution is clear.

Row | melting point | solubility [1] | Cellular activity pIC50 C.2. [2] | Enzymatic activity pIC50 C.1. [3] | Solubility C.3.b. pH = 2.3 mg/ml [1] | IC50 [2] | solubility [4] | Compound
1 | 135 °C |  |  |  |  |  |  | O=C(NO)c1cnc(N2CCN(C(/C=C/c3ccc(Cl)cc3)CN3CCOCC3)CC2)nc1 (stereo not drawn) (hydrate or solvate) [Compound 2]
2 | 146 °C |  |  |  |  |  |  | CN(C)C(=O)C(C)(/C=C/c1ccc(F)cc1)N1CCN(c2ncc(C(=O)NO)cn2)CC1 (stereo not drawn) (hydrate or solvate) [Compound 10]
3 |  | 3400 µg/mL (≈ 9.2 mM) | 7.6 | 7.9 |  |  |  | O=C(NO)c1cnc(N2CCN([C@@H](/C=C/c3ccccc3)CO)CC2)nc1 (single isomer, unassigned) [Compound 25]
4 |  |  | 7.2 | 8.3 | 3.5 mg/ml |  |  | O=C(NO)c1cnc(N2CCN([C@@H](/C=C/c3ccccc3)CO)CC2)nc1 (single isomer, unassigned) [Compound 26]
5 |  |  | 7.5 |  |  |  |  | O=C(NO)c1cnc(N2CCN([C@@H](/C=C/c3ccc(F)cc3)CO)CC2)nc1 (single isomer, unassigned) [Compound 27]
6 |  |  | 7.5 |  |  |  |  | O=C(NO)c1cnc(N2CCN([C@H](/C=C/c3ccc(F)cc3)CO)CC2)nc1 (single isomer, unassigned) [Compound 28]
7 |  |  | 8.2 |  |  |  |  | O=C(NO)c1cnc(N2CCN([C@@H](/C=C/c3ccc(F)cc3)CO)CC2)nc1 (single isomer, unassigned) [Compound 33]
8 |  |  | 7.9 |  |  |  |  | O=C(NO)c1cnc(N2CCN([C@H](/C=C/c3ccc(F)cc3)CO)CC2)nc1 (single isomer, unassigned) [Compound 34]
9 |  |  |  | 7.4 |  | 316 nM | > 455 µM | O=C(NO)c1cnc(N2CCN(C(/C=C/c3ccc(Cl)cc3)CN3CCOCC3)CC2)nc1 (stereo not drawn) [Compound 2]
10 |  |  |  | 8.1 |  | 31.6 nM | > 455 µM | COc1ccc(/C=C/C(CO)N2CCN(c3ncc(C(=O)NO)cn3)CC2)cc1 (stereo not drawn) [Compound 3]
11 |  |  |  | 7.9 |  | 39.8 nM | < 76 µM | O=C(NO)c1cnc(N2CCN(C(/C=C/c3ccc(-c4ccccc4)cc3)CO)CC2)nc1 (stereo not drawn) [Compound 5]
12 |  |  |  | 7.6 |  | 39.8 nM | > 455 µM | O=C(NO)c1cnc(N2CCN(C(/C=C/c3ccc(C(F)(F)F)cc3)CO)CC2)nc1 (stereo not drawn) [Compound 6]
13 | 161 °C | 2000 µg/mL (≈ 5.66 mM) |  | >9 |  | 31.6 nM |  | CC(/C=C/c1ccccc1)N1CCN(c2ncc(C(=O)NO)cn2)CC1 (stereo not drawn) [Compound 7]
14 |  | 2900 µg/mL (≈ 7.49 mM) |  |  |  | 12.6 nM |  | O=C(NO)c1cnc(N2CCN(C(/C=C/c3ccc(F)cc3)CO)CC2)nc1 (stereo not drawn) [Compound 8]
15 | 161 °C |  |  | 9.4 |  | 25.1 nM |  | CC(=O)OCC(/C=C/c1ccccc1)N1CCN(c2ncc(C(=O)NO)cn2)CC1 (stereo not drawn) [Compound 9]
16 |  | 3000 µg/mL (≈ 6.78 mM) |  | 8.4 |  | 31.6 nM |  | CN(C)C(=O)C(C)(/C=C/c1ccc(F)cc1)N1CCN(c2ncc(C(=O)NO)cn2)CC1 (stereo not drawn) [Compound 10]

Row | melting point | solubility [1] | Cellular activity pIC50 C.2. [2] | Enzymatic activity pIC50 C.1. [3] | Solubility C.3.b. pH = 2.3 mg/ml [1] | IC50 [2] | solubility [4] | Compound
17 | 212 °C | 3100 µg/mL (≈ 8.08 mM) |  | 9.4 |  | 10 nM |  | COCC(/C=C/c1ccccc1)N1CCN(c2ncc(C(=O)NO)cn2)CC1 (stereo not drawn) [Compound 11]
18 |  | 2100 µg/mL (≈ 5.48 mM) |  | 9.0 |  | 31.6 nM |  | Cc1ccc(/C=C/C(CO)N2CCN(c3ncc(C(=O)NO)cn3)CC2)cc1 (stereo not drawn) [Compound 12]
19 |  | 3700 µg/mL (≈ 7.93 mM) |  | 8.8 |  | 100 nM |  | CC(/C=C/c1ccccc1)(C(=O)N1CCOCC1)N1CCN(c2ncc(C(=O)NO)cn2)CC1 (stereo not drawn) [Compound 13]
20 |  | 2800 µg/mL (≈ 6.13 mM) |  | 8.5 |  | 39.8 nM |  | CCN(C)C(=O)C(C)(/C=C/c1ccc(F)cc1)N1CCN(c2ncc(C(=O)NO)cn2)CC1 (stereo not drawn) [Compound 14]
21 |  |  |  | 7.6 |  | 100 nM | > 455 µM | O=C(NO)c1cnc(N2CCN(C(/C=C/c3ccccc3)C(=O)NC3CC3)CC2)nc1 (stereo not drawn) [Compound 15]
22 |  | 2800 µg/mL (≈ 7.06 mM) |  | 7.4 |  | 79.4 nM |  | CNC(=O)C(/C=C/c1ccccc1)N1CCN(c2ncc(C(=O)NO)cn2)CC1 (stereo not drawn) [Compound 16]
23 |  | 2200 µg/mL (≈ 4.86 mM) |  | 8.8 |  | 200 nM |  | O=C(NO)c1cnc(N2CCN(C(/C=C/c3ccccc3)C(=O)N3CCOCC3)CC2)nc1 (stereo not drawn) [Compound 17]
24 |  | 3600 µg/mL (≈ 7.94 mM) |  | 8.5 |  | 100 nM |  | CN(C)CCNC(=O)C(/C=C/c1ccccc1)N1CCN(c2ncc(C(=O)NO)cn2)CC1 (stereo not drawn) [Compound 18]
25 |  | 2600 µg/mL (≈ 6.1 mM) |  | 8.4 |  | 501 nM |  | O=C(NO)c1cnc(N2CCN(C(/C=C/c3ccccc3)C(=O)NCCO)CC2)nc1 (stereo not drawn) [Compound 19]
26 |  |  |  | 7.7 |  | 50.1 nM |  | CCCCN(C)C(=O)C(C)(/C=C/c1ccc(F)cc1)N1CCN(c2ncc(C(=O)NO)cn2)CC1 (stereo not drawn) [Compound 20]
27 |  | 2100 µg/mL (≈ 4.79 mM) |  | 7.9 |  | 158 nM |  | O=C(NO)c1cnc(N2CCN(C(/C=C/c3ccccc3)CN3CCOCC3)CC2)nc1 (stereo not drawn) [Compound 21]
28 |  | 4200 µg/mL (≈ 9.3 mM) |  | 7.9 |  | 158 nM |  | CN1CCN(CC(/C=C/c2ccccc2)N2CCN(c3ncc(C(=O)NO)cn3)CC2)CC1 (stereo not drawn) [Compound 22]
29 |  |  |  | 8.0 |  | 251 nM |  | O=C(NO)c1cnc(N2CCN(C(/C=C/c3ccccc3)Cn3ccnc3)CC2)nc1 (stereo not drawn) [Compound 23]
30 |  | 4000 µg/mL (≈ 10.1 mM) |  | 8.8 |  | 31.6 nM |  | CCOCC(/C=C/c1ccccc1)N1CCN(c2ncc(C(=O)NO)cn2)CC1 (stereo not drawn) [Compound 24]
31 |  |  |  | >9 |  | < 31.6 nM |  | COCC(/C=C/c1ccc(F)cc1)N1CCN(c2ncc(C(=O)NO)cn2)CC1 (stereo not drawn) [Compound 32]
32 |  |  | 7.8 | 9.6 |  |  |  | CC(/C=C/c1ccccc1)N1CCN(c2ncc(C(=O)NO)cn2)CC1 (stereo not drawn) [Compound 35]

Row | Compound | melting point | solubility [1] | Cellular activity pIC50 C.2. [2] | Enzymatic activity pIC50 C.1. [3] | Solubility C.3.b. pH = 2.3 mg/ml [1] | IC50 [2] | solubility [4]
33 | O=C(NO)c1ccc(N2CCN(C(/C=C/c3ccc(F)cc3)CO)CC2)nc1 (stereo not drawn) [Compound 31] | 145 °C |  |  | 8.5 |  | 39.8 nM | 
